Test results: US10975068B2, “6-aminopyridin-3-yl thiazoles as modulators of RORγT” (Janssen Pharmaceutica NV, priority 2016, dated 2021)
Like-named read-outs stand apart in the source and are kept apart here.

How the values were obtained:
[1] = target: human RORγt ligand binding domain (RORγt LBD) (Homo sapiens (Human), UniProt P51449); assay: RORγt ThermoFluor® assay (thermal shift binding); conditions: for Kd: read-out: ThermoFluor® Assay, Kd
Excerpt: ThermoFluor® is a fluorescence based assay that estimates ligand binding affinities by measuring the effect of a ligand on protein thermal stability (Pantoliano, M. W., Petrella, E. C., Kwasnoski, J. D., Lobanov, V. S., Myslik, J., Graf, E., Carver, T., Asel, E., Springer, B. A., Lane, P., and Salemme, F. R. (2001) High-density miniaturized thermal shift assays as a general strategy for drug discovery. J Biomol Screen 6, 429-40, and Matulis, D., Kranz, J. K., Salemme, F. R., and Todd, M. J. (2005) Thermodynamic stability of carbonic anhydrase: measurements of binding affinity and stoichiometry using ThermoFluor. Biochemistry 44, 5258-66). This approach is applicable to a wide variety of systems, and rigorous in theoretical interpretation through quantitation of equilibrium binding constants (KD).
The shift in the melting point described as a ΔTm is proportional to the concentration and affinity of the ligand. The compound potency may be compared as a rank order of either ΔTm values at a single compound concentration or in terms of KD values, estimated from concentration response curves.
RORγt ThermoFluor® Assay Construct
For the RORγt construct used in the ThermoFluor® assay, numbering for the nucleotide sequences was based on the reference sequence for human RORγt, transcript variant 2, NCBI Accession: NM_001001523.1 (SEQ ID NO:1). Nucleotides 850-1635 (SEQ ID NO:2) coding for the wild type human RORγt ligand binding domain (RORγt LBD) were cloned into the pHIS1 vector, a modified pET E. coli expression vector (Accelagen, San Diego), containing an in-frame N-terminal His-tag and a TurboTEV protease cleavage site (ENLYFQG, SEQ ID NO:3) upstream of the cloned insert sequence. The amino acid sequence for the RORγt construct used in the Thermofluor® assay is shown as SEQ ID NO:4.
ThermoFluor® experiments were carried out using instruments owned by Janssen Research and Discovery, L.L.C. through its acquisition of 3-Dimensional Pharmaceuticals, Inc. 1,8-ANS (Invitrogen) was used as a fluorescent dye. Protein and compound solutions are dispensed into black 384-well polypropylene PCR microplates (Abgene) and overlayed with silicone oil (1 μL, Fluka, type DC 200) to prevent evaporation.
Bar-coded assay plates are robotically loaded onto a thermostatically controlled PCR-type thermal block and then heated at a typical ramp-rate of 1° C./min for all experiments. Fluorescence was measured by continuous illumination with UV light (Hamamatsu LC6) supplied via fiber optic and filtered through a band-pass filter (380-400 nm; >6 OD cutoff). Fluorescence emission of the entire 384-well plate was detected by measuring light intensity using a CCD camera (Sensys, Roper Scientific) filtered to detect 500±25 nm, resulting in simultaneous and independent readings of all 384 wells. Images were collected at each temperature, and the sum of the pixel intensity in a given area of the assay plate was recorded versus temperature. Reference wells contained RORγt without compounds, and the assay conditions were as follows: • 0.065 mg/mL RORγt • 60 μM 1,8-ANS • 100 mM Hepes, pH 7.0 • 10 mM NaCl • 2.5 mM GSH • 0.002% Tween-20
Project compounds were arranged in a pre-dosed mother plate (Greiner Bio-one) wherein compounds are serially diluted in 100% DMSO by 1:2 from a high concentration of 10 mM over 12 columns within a series (column 12 is a reference well containing DMSO, no compound). The compounds were robotically dispensed directly into assay plates (×=46 nL) using a Hummingbird capillary liquid handling instrument (Digilab). Following compound dispense, protein and dye in buffer was added to achieve the final assay volume of 3 μL, followed by 1 μL of silicone oil.

full-length human RORγt = full-length human RORγt (Homo sapiens (Human), UniProt P51449); assay: RORγt (full-length human) reporter assay, Conditions B or C; type: cell-based; conditions: for RORγt (FL) Reporter Assay B or C, % inhibition (value marked *): marked *: footnote not given; for IC50: read-out: RORγt (FL) Reporter Assay B or C, IC50; for inhibition at 3 µM: at 3 μM compound concentration, read-out: RORγt (FL) Reporter Assay B or C, % inhibition
Excerpt: RORγt (Full-Length Human) Reporter Assay:
Cells used in this assay were transiently co-transfected with three different plasmids, one expressing the GAL4-DNA binding domain (DBD)-RORγt fusion protein under control of a CMV promoter (NH2-Gal4-DBD:RORC-COOH in pCMV-BD, Stratagene #211342), and two reporter plasmids—the firefly luciferase reporter under control of a GAL4 promoter (pFR-Luc 2×GAL4) and Renilla luciferase reporter under control of CMV promoter (pRL-CMV, Promega # E2261). The full-length coding sequence was used for human RORγt, i.e., nucleotides 142-1635 of human RORγt, transcript variant 2, NCBI Accession: NM_001001523.1 (SEQ ID NO:1). HEK293T cells were plated at 35,000 per well in 96-well plate in medium of DMEM with 10% FBS. After 18-22 hours incubation, the transfection was carried out by using a PEI solution with 170.5 ng total DNA/well (50 ng pCMV-BD-ROR plus 20 ng of pFR-Luc reporter and 0.5 ng of pRL-CMV reporter plus 100 ng Carrier DNA (Clontech #630440) for each well). 4-6 hours after transfection, cells were treated with compounds for overnight in the medium with final concentration of FBS 1.3% and DMSO 0.1%. After overnight (16 to 20 hours) incubation, media were removed and cells were lysed with 50 μL Glo Lysis Buffer (Promega) for 10-15 minutes followed by 10 minute incubation with 50 μL Dual Glo reagent (Promega) at room temperature. Firefly luciferase luminescence was measured using a BMG Pherastar plate reader. To each well, 50 μL Stop and Glo reagent was added and incubated for 10 minutes at room temperature. Renilla luminescence was measured using a BMG Pherastar plate reader. To calculate the effect of compounds on RORγt activity, firefly values were normalized against values of DMSO only and values of reference compound at saturating concentration, then further normalized against Renilla signals. IC50s were generated by plotting final Renilla normalized data against compound concentration and percent inhibition was calculated against DMSO control.
Cells used in this assay were transiently co-transfected with three different plasmids, one expressing the GAL4-DNA binding domain (DBD)-RORγt fusion protein under control of a CMV promoter (NH2-Gal4-DBD:RORC-COOH in pCMV-BD, Stratagene #211342), and two reporter plasmids—the firefly luciferase reporter under control of a GAL4 promoter (pFR-Luc 2×GAL4) and Renilla luciferase reporter under control of CMV promoter (pRL-CMV, Promega # E2261). The full-length coding sequence was used for human RORγt, i.e., nucleotides 142-1635 of human RORγt, transcript variant 2, NCBI Accession: NM_001001523.1 (SEQ ID NO:1). HEK293T cells were plated at 8750 cells per well in 384-well plate in medium of DMEM with 10% FBS. After 18-22 hours incubation, the transfection was carried out by using a PEI solution with 42.6 ng total DNA/well (12.5 ng pCMV-BD-ROR plus 5 ng of pFR-Luc reporter and 0.125 ng of pRL-CMV reporter plus 25 ng Carrier DNA (Clontech #630440) for each well). 4-6 hours after transfection, cells were treated with compounds for overnight in the medium with final concentration of FBS 1.3% and DMSO 0.1%. After overnight (16 to 20 hours) incubation, media were removed and cells were lysed with 20 μL Glo Lysis Buffer (Promega) for 10-15 minutes followed by 10 minute incubation with 20 μL Dual Glo reagent (Promega) at room temperature. Firefly luciferase luminescence was measured using a BMG Pherastar plate reader. To each well, 20 μL Stop and Glo reagent was added and incubated for 10 minutes at room temperature. Renilla luminescence was measured using a BMG Pherastar plate reader. To calculate the effect of compounds on RORγt activity, firefly values were normalized against values of DMSO only and values of reference compound at saturating concentration, then further normalized against Renilla signals.

[2] = compared to Comparator Example 1
[3] = compared to Comparator Example 2

human RORγt ligand binding domain (RORγt LBD), sequence (P51449 other isoform, or with tags, fused parts or gaps): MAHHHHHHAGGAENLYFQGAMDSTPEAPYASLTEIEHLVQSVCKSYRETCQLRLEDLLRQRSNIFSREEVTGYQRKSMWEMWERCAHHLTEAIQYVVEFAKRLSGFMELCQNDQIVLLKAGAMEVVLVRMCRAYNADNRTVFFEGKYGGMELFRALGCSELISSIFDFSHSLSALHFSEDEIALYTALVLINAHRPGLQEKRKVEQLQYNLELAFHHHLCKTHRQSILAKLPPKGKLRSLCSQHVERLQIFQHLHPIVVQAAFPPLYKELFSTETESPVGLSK
full-length human RORγt, sequence (P51449 other isoform, or with tags, fused parts or gaps): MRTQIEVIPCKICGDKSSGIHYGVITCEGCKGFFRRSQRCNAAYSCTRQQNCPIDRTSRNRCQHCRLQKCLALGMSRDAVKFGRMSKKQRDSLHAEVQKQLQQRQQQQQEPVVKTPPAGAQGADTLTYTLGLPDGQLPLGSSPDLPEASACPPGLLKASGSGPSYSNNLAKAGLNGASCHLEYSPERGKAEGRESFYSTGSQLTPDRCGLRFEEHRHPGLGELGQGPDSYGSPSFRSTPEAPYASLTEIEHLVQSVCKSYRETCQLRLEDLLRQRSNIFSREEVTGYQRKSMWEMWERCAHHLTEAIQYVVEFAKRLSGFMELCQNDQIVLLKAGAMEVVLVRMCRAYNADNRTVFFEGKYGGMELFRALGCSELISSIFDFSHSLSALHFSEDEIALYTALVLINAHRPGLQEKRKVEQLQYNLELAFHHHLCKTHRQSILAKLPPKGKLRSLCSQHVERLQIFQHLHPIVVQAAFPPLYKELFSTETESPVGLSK

| Compound | Kd [1] | RORγt (FL) Reporter Assay B or C, % inhibition (value marked *) (full-length human RORγt; Conditions B or C) | IC50 (full-length human RORγt; Conditions B or C) | fold improvement in RORγt Thermofluor® binding assay activity [1, 2] | fold improvement in RORγt Thermofluor® binding assay activity [1, 3] | IC50 (full-length human RORγt; HEK293T cells) | fold improvement in RORγt reporter assay activity (full-length human RORγt; [2]) | fold improvement in RORγt reporter assay activity (full-length human RORγt; [3]) | inhibition at 3 µM (full-length human RORγt) | IC50 (full-length human RORγt) |
| --- | --- | --- | --- | --- | --- | --- | --- | --- | --- | --- |
| C[C@H]1CCCN1C(=O)c1nc(C(=O)NCC(C)(C)O)sc1-c1cnc(NC2CCCCC2)c(C#N)c1 [Example 146, (S)-5-(5-Cyano-6-(cyclohexylamino)pyridin-3-yl)-N-(2-hydroxy-2-methylpropyl)-4-(2-methylpyrrolidine-1-carbonyl)thiazole-2-carboxamide] | 210 nM | 98* % | 830 nM | 14 fold | 27 fold | 830 nM | 7.2 fold | 3.6 fold |  |  |
| CC[C@H](Nc1cc(C(F)F)c(-c2sc(C(=O)N[C@H](C)C(C)(C)O)nc2C(=O)N2C3CCC2CC3)cn1)C(F)(F)F [Example 242, 4-((1s,4s)-7-Azabicyclo[2.2.1]heptane-7-carbonyl)-5-[4-(difluoromethyl)-6-[[(1S)-1-(trifluoromethyl)propyl]amino]-3-pyridyl]-N-[(1R)-2-hydroxy-1,2-dimethyl-propyl]thiazole-2-carboxamide] | 2.8 nM | 86* % | 15 nM |  |  |  |  |  |  |  |
| C[C@H]1CC(F)(F)CN1C(=O)c1nc(C(=O)N[C@H](C)C(C)(C)O)sc1-c1cnc(N[C@@H](C2CC2)C(F)(F)F)cc1C(F)F [Example 314, 5-(6-(((S)-1-Cyclopropyl-2,2,2-trifluoroethyl)amino)-4-(difluoromethyl)pyridin-3-yl)-4-((S)-4,4-difluoro-2-methylpyrrolidine-1-carbonyl)-N—((R)-3-hydroxy-3-methylbutan-2-yl)thiazole-2-carboxamide] | 1.4 nM |  |  |  |  |  |  |  | 101% | 35 nM |
| C[C@H](Nc1cc(C(F)(F)F)c(-c2sc(C(=O)N[C@@H](C)C(C)(C)O)nc2C(=O)N2CC(F)(F)C[C@@H]2C)cn1)C1CC1 [Example 202, 5-(6-(((S)-1-Cyclopropylethyl)amino)-4-(trifluoromethyl)pyridine-3-yl)-4-((S)-4,4-difluoro-2-methylpyrrolidine-1-carbonyl)-N—((S)-3-hydroxy-3-methylbutan-2-yl)thiazole-2-carboxamide] | 1.3 nM | 98* % | 17 nM |  |  |  |  |  |  |  |
| C[C@H](Nc1cc(C(F)F)c(-c2sc(C(=O)N[C@@H]3CC[C@@H]3O)nc2C(=O)N2CCC[C@@H]2C)cn1)C(F)(F)F (relative stereo) [Example 391, 5-(4-(Difluoromethyl)-6-(((S)-1,1,1-trifluoropropan-2-yl)amino)pyridin-3-yl)-N-((1R*,2S*)-2-hydroxycyclobutyl)-4-((S)-2-methylpyrrolidine-1-carbonyl)thiazole-2-carboxamide] | 4.2 nM |  |  |  |  |  |  |  | 106% | 35 nM |

The remaining lines, values ahead:

| Kd [1] | RORγt (FL) Reporter Assay B or C, % inhibition (value marked *) (full-length human RORγt; Conditions B or C) | IC50 (full-length human RORγt; Conditions B or C) | fold improvement in RORγt Thermofluor® binding assay activity [1, 2] | fold improvement in RORγt Thermofluor® binding assay activity [1, 3] | IC50 (full-length human RORγt; HEK293T cells) | fold improvement in RORγt reporter assay activity (full-length human RORγt; [2]) | fold improvement in RORγt reporter assay activity (full-length human RORγt; [3]) | inhibition at 3 µM (full-length human RORγt) | IC50 (full-length human RORγt) | Compound |
| --- | --- | --- | --- | --- | --- | --- | --- | --- | --- | --- |
| 0.19 nM | 111* % | 4.7 nM |  |  |  |  |  |  |  | C[C@H]1CCCCN1C(=O)c1nc(C(=O)NCC(C)(C)O)sc1-c1cnc(NC(C)(C)C)cc1C(F)(F)F [Example 80, (S)-5-(6-(tert-Butylamino)-4-(trifluoromethyl)pyridin-3-yl)-N-(2-hydroxy-2-methylpropyl)-4-(2-methylpiperidine-1-carbonyl)thiazole-2-carboxamide] |
| 0.28 nM | 100* % | 23 nM |  |  |  |  |  |  |  | CC[C@H](Nc1cc(C(F)F)c(-c2sc(C(=O)N[C@@H](C)C(C)(C)O)nc2C(=O)N2CCCC[C@@H]2C)cn1)C(F)(F)F [Example 247, 5-[4-(Difluoromethyl)-6-[[(1S)-1-(trifluoromethyl)propyl]amino]-3-pyridyl]-N-[(1S)-2-hydroxy-1,2-dimethyl-propyl]-4-[(2S)-2-methylpiperidine-1-carbonyl]thiazole-2-carboxamide] |
| 20 nM | 108* % | 100 nM |  |  |  |  |  |  |  | C[C@H]1CCCN1C(=O)c1nc(C(=O)N2CC(C)(O)C2)sc1-c1cnc(NC(C)(C)C)cc1C(F)F [Example 149, [5-[6-(tert-Butylamino)-4-(difluoromethyl)-3-pyridyl]-2-(3-hydroxy-3-methyl-azetidine-1-carbonyl)thiazol-4-yl]-[(2S)-2-methylpyrrolidin-1-yl]methanone] |
